Broadly, the IC50 is the concentration at which inhibition is half-maximal.

Some results are limits rather than exact numbers.

This note sets out measurements from patent US5475014A, “Oxazolidone derivative” (Eisai Co., Ltd., priority 1991, dated 1995).

Assay type in all cases: biochemical, rat (male Wistar)
The target of one assay is T1, MAO-A (Rattus norvegicus, UniProt P21396).
T1 construct: suspension of 1 part by volume of the forebrains of male Wistar rats; from tissue; host or cells: forebrain of male Wistar rats, suspension in potassium phosphate buffer
T1 sequence (P21396 1-526): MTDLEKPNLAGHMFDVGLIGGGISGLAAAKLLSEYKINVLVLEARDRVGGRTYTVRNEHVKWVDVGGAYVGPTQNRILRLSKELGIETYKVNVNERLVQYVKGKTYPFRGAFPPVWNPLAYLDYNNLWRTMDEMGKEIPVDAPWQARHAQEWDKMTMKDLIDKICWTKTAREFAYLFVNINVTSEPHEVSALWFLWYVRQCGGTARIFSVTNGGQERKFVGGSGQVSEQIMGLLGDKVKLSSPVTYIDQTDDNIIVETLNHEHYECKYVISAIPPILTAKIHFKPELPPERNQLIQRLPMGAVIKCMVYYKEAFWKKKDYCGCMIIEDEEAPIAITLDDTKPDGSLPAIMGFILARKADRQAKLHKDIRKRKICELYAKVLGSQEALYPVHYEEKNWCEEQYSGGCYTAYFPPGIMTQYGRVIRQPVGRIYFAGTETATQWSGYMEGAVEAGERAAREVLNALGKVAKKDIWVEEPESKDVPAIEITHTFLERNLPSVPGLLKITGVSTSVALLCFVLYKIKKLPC
Briefly: MAO-A inhibition activity with rat forebrain (14C-5-HT substrate). Particulars: for IC50: 5-HT 200 μM, read-out: Inhibiting activity MAO-A, IC50; for inhibition at 0.1 µM: read-out: Inhibiting activity MAO-A (% at 10^-7 M). The procedure: (§1) Determination of MAO inhibition activity with the use of rat forebrain:
(§2) The MAO inhibition activity was determined by a method of Prada et al. (J. Pharmacol. Exp. Ther., 248, 400-414 (1989)).
(§3) The enzyme reaction was conducted in 300 μl of a solution having the following composition:
(§4) ^14 C-labelled enzyme substrate
(§5) The enzyme source used was a suspension of 1 part by volume of the forebrains of male Wistar rats in 5 parts by volume of a 0.1M potassium phosphate buffer (pH 7.4). The enzyme source was mixed with the test compound and the mixture was prewarmed at 37° C. for 10 min. Then the enzyme substrate was added thereto to initiate the enzyme reaction. After 10 min, 200 μl of 2N hydrochloric acid was added to terminate the reaction.
(§6) As the substrates for MAO-A and MAO-B, 5-HT (serotonin) and PEA (β-phenethylamine) each labelled with ^14 C were used, respectively. The specific radioactivities of 5-HT and PEA were regulated to 11.1 MBq/mmol and 29.6 MBq/mmol, respectively, and the concentrations of them were 200 μM and 20 μM, respectively, in the reaction.
(§7) The test compound was dissolved in distilled water so that an intended concentration could be obtained in the enzyme reaction. When the test compound was insoluble in water, it was dissolved in dimethyl sulfoxide to obtain a 10% solution.
(§8) Diethyl ether and n-heptane were used as […], respectively. After the termination of the enzyme reaction, 3 ml of the solvent was added to the reaction mixture and shaken for 10 min. After centrifugation at 3,000 rpm for about 10 min, the lower aqueous layer was frozen in dry ice/acetone. The upper organic layer was recovered by decantation and the radioactivity thereof was determined with a liquid scintillation counter.
(§9) The inhibiting activities of the test compounds against MAO A and MAO B are given at the concentrations of 10^-7 M and 10^-6 M or by IC50 values.

The target in assay [1] is T2, MAO-B (Rattus norvegicus, UniProt P19643).
T2 construct: suspension of 1 part by volume of the forebrains of male Wistar rats; from tissue; host or cells: forebrain of male Wistar rats, suspension in potassium phosphate buffer
T2 sequence (P19643 1-520): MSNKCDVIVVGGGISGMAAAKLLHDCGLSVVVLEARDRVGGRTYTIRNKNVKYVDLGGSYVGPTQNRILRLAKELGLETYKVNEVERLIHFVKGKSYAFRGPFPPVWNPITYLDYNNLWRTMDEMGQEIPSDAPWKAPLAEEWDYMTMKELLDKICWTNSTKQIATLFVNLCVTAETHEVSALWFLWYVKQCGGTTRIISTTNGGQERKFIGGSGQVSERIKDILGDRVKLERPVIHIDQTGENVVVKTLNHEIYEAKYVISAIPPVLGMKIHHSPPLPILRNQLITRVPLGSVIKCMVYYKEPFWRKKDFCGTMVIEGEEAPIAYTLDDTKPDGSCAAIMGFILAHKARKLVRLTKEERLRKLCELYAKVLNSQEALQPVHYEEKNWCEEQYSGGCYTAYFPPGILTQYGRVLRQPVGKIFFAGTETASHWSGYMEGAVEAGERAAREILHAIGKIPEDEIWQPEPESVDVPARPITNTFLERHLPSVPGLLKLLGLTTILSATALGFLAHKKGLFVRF
Briefly: MAO-B inhibition activity with rat forebrain (14C-PEA substrate). Particulars: for IC50: PEA 20 μM, read-out: Inhibiting activity MAO-B, IC50; for inhibition at 1 µM / Inhibiting activity MAO-B (% at 10^-6 M): 10^-6 M; for inhibition at 1 µM: read-out: Inhibiting activity MAO-B (% at 10^-6 M). The procedure: as §1, §2, §3, §4, §5, §6, §7, §8, §9

Assay [2] has as its target T2, MAO-B. The assay is described as above. The note with it: 10^-5 M, read-out: Inhibiting activity MAO-B (at 10^-5 M).

`N#CCCCCc1nc2ccc(N3C[C@H](CO)OC3=O)cc2s1` [Example 24]: the IC50 on MAO-A is 0.137 µM; at MAO-B [1] it was greater than 100 µM.

`COC[C@H]1CN(c2ccc3nc(C(C)(C)CCC#N)sc3c2)C(=O)O1` [Example 25]: the inhibition at 0.1 µM on MAO-A (10^-7 M) turned out to be 73%. Also, the inhibition at 1 µM at MAO-B [1] turned out to be 7%.

`CC(C)(CCC#N)c1nc2ccc(N3C[C@H](CO)OC3=O)cc2s1` [Example 26]: the inhibition at 0.1 µM at MAO-A (10^-7 M) was found to be 73%. For the same compound, the inhibition at 1 µM at MAO-B [1] came out at 7%.

As to `COCC1CN(c2ccc3nc(C(O)CCC#N)sc3c2)C(=O)O1` (stereo not drawn) [Example 27], on MAO-A, the IC50 amounted to 0.0067 µM. The “Inhibiting activity MAO-B (% at 10^-6 M)” value at MAO-B [1] turned out to be 10%.

Consider `COCC1CN(c2ccc3nc(N(C)CCC#N)sc3c2)C(=O)O1` (stereo not drawn) [Example 28], for which the IC50 turned out to be 0.031 µM at MAO-A and 990 µM on MAO-B [1].

For the compound `CN(CCC#N)c1nc2ccc(N3CC(CO)OC3=O)cc2s1` (stereo not drawn) [Example 29], the concentration for half-maximal inhibition (IC50) came to 0.019 µM on MAO-A and 2240 µM at MAO-B [1].

Consider `COCC1CN(c2ccc3nc(C(O)CCCO)sc3c2)C(=O)O1` (stereo not drawn) [Example 30], for which the inhibition at 0.1 µM on MAO-A (10^-7 M) was determined as 42%. Further, the inhibition at 1 µM on MAO-B [1] is 15%.

Turning to `COCC1CN(c2ccc3nc(C(=O)CCC#N)sc3c2)C(=O)O1` (stereo not drawn) [Example 31], the inhibition at 0.1 µM at MAO-A (10^-7 M) was 54%. Besides, the inhibition at 1 µM on MAO-B [1] was found to be 12%.

On to `COCC1CN(c2ccc3nc(NCCC#N)sc3c2)C(=O)O1` (stereo not drawn) [Example 32], for which the inhibition at 0.1 µM at MAO-A (10^-7 M) was 23%. For the same compound, the inhibition at 1 µM on MAO-B [1] is 7%.

Take `N#CCCNc1nc2ccc(N3CC(CO)OC3=O)cc2s1` (stereo not drawn) [Example 33]: the inhibition at 0.1 µM at MAO-A (10^-7 M) was 5%. Besides, at MAO-B [1], the inhibition at 1 µM turned out to be 10%.

`COCC1CN(c2ccc3nc(C4CCC(=O)O4)sc3c2)C(=O)O1` (stereo not drawn) [Example 34]: the “Inhibiting activity MAO-A (% at 10^-7 M)” value on MAO-A (10^-7 M) came to 11%. On MAO-B [1], the “Inhibiting activity MAO-B (% at 10^-6 M)” value turned out to be 8%.

Take `COCC1CN(c2ccc3nc(C(O)CCC#N)sc3c2)C(=O)O1` (stereo not drawn) [Example 35]: the inhibition at 0.1 µM at MAO-A (10^-7 M) worked out at 27%. Further, the “Inhibiting activity MAO-B (% at 10^-6 M)” value at MAO-B [1] turned out to be 0%.

Take `COCC1CN(c2ccc3nc(C(C)(O)CCC#N)sc3c2)C(=O)O1` (stereo not drawn) [Example 36]: the IC50 at MAO-A was 0.0068 µM. Besides, the inhibition at 1 µM on MAO-B [1] is 1%.

Consider `COCC1CN(c2ccc3nc(C(C)(O)CCC#N)sc3c2)C(=O)O1` (stereo not drawn) [Example 37], for which the IC50 at MAO-A stood at 0.045 µM. Also, at MAO-B [2], the inhibition at 10 µM was 35%.

With `COCC1CN(c2ccc3nc(C(CCC#N)=NO)sc3c2)C(=O)O1` (stereo not drawn) [Example 38], the inhibition at 0.1 µM at MAO-A (10^-7 M) came out at 32%. For the same compound, at MAO-B [1], the inhibition at 1 µM amounted to 11%.

As for `COCC1CN(c2ccc3nc(C(CCC#N)=NOC)sc3c2)C(=O)O1` (stereo not drawn) [Example 39], at MAO-A (10^-7 M), the inhibition at 0.1 µM was found to be 15%. Besides, the inhibition at 1 µM on MAO-B [1] was 2%.

With `COCC1CN(c2ccc3nc(C(CCC#N)N4CCCC4)sc3c2)C(=O)O1` (stereo not drawn) [Example 40], the inhibition at 0.1 µM on MAO-A (10^-7 M) was found to be 8%. Further, the inhibition at 1 µM at MAO-B [1] was 6%.

With `COCC1CN(c2ccc3nc(C(N)CCC#N)sc3c2)C(=O)O1` (stereo not drawn) [Example 41], the inhibition at 0.1 µM at MAO-A (10^-7 M) was determined as 9%. Besides, the inhibition at 1 µM on MAO-B [1] came out at 3%.

Consider `N#CC1CCN(c2nc3ccc(N4CC(CO)OC4=O)cc3s2)CC1` (stereo not drawn) [Example 42], for which the inhibition at 0.1 µM on MAO-A (10^-7 M) is 63%. Also, the inhibition at 1 µM on MAO-B [1] stood at 5%.

As to `COCC1CN(c2ccc3nc(N(CCC#N)CCC#N)sc3c2)C(=O)O1` (stereo not drawn) [Example 43], the inhibition at 1 µM on MAO-A (10^-6 M, read-out: Inhibiting activity MAO-A (at 10^-6 M)) was 87%; at MAO-B [1], 14%.

Turning to `COCC1CN(c2ccc3sc(C)nc3c2)C(=O)O1` (stereo not drawn) [Example 44], the inhibition at 0.1 µM on MAO-A (10^-7 M) was 6%. Besides, on MAO-B [1], the inhibition at 1 µM came to 4%.

In the case of `COCC1CN(c2ccc3sc(NC(=O)CC#N)nc3c2)C(=O)O1` (stereo not drawn) [Example 45], the inhibition at 0.1 µM at MAO-A (10^-7 M) came out at 40%. Further, the inhibition at 1 µM on MAO-B [1] was determined as 10%.

Consider `COCC1CN(c2ccc3sc(C(O)CCC#N)nc3c2)C(=O)O1` (stereo not drawn) [Example 46], for which the inhibition at 0.1 µM on MAO-A (10^-7 M) was found to be 7%. Also, on MAO-B [1], the inhibition at 1 µM turned out to be 3%.

As to `COCC1CN(c2ccc3sc(CCCC#N)nc3c2)C(=O)O1` (stereo not drawn) [Example 47], at MAO-A (10^-7 M), the inhibition at 0.1 µM was determined as 52%. In addition, the inhibition at 1 µM at MAO-B [1] was 9%.
